We go through six molecules from ChEMBL document CHEMBL1146017, “Dipeptide vinyl sultams: synthesis via the Wittig-Horner reaction and activity against papain, falcipain-2 and Plasmodium falciparum” (Bioorg Med Chem Lett, 2006).

Activity calls are given as the source filed them. No cut-off for these calls is given here.

In general, IC50 refers to the midpoint of a concentration-inhibition curve.

One assay has as its system Plasmodium falciparum. Put plainly: Inhibition of Plasmodium falciparum W2. The class given is functional, organism-based.
Assay [1] concerns the target T1, Papain (Carica papaya) (UniProt P00784).
T1 sequence (whole entry): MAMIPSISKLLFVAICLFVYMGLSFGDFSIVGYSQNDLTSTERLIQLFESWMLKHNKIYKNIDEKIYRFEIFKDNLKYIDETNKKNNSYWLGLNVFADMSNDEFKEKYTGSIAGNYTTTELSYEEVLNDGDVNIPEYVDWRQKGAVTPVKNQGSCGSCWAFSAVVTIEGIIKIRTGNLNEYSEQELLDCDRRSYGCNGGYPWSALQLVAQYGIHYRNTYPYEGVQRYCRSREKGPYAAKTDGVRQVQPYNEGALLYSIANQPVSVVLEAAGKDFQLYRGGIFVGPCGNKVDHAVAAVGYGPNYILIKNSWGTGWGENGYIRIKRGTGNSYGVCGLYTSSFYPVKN
Description: Inhibition of papain at 50 uM.

In a further assay the target is T2, Falcipain 2 (Plasmodium falciparum, UniProt Q9N6S8).
T2 sequence (Q9N6S8 whole entry): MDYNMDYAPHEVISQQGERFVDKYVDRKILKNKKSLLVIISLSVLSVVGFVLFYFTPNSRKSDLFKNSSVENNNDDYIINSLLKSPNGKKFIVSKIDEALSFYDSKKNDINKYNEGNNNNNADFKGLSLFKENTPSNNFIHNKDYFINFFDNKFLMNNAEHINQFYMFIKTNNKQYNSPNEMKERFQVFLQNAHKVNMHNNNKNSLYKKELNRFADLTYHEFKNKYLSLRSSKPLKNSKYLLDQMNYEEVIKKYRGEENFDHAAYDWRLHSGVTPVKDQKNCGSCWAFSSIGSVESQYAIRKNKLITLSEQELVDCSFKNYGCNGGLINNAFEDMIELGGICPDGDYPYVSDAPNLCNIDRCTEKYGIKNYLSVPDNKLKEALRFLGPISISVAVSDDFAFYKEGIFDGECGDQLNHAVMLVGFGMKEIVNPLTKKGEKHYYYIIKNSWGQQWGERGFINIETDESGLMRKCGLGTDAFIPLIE
Description: Inhibition of recombinant falcipain2.

The target in assay [2] is T1, Papain (Carica papaya). Put plainly: Inhibition of papain upto 50 uM after 30 min.

For `CC(C)C[C@H](NC(=O)N1CCOCC1)C(=O)N[C@H](/C=C1/CCCN(Cc2ccccc2)S1(=O)=O)Cc1ccccc1`, the IC50 is above 10 µM in the assay on Plasmodium falciparum and 23.6 µM on Falcipain 2. Also, the inhibition result at Papain (Carica papaya) [1] is “inactive”.

Take `CC(C)(C)OC(=O)N[C@H](/C=C1\CCCN(Cc2ccccc2)S1(=O)=O)Cc1ccccc1`: the inhibition result at Papain (Carica papaya) [1] is “inactive”.

With `CC(C)C[C@H](NC(=O)N1CCOCC1)C(=O)N[C@H](/C=C1\CCN(Cc2ccccc2)S1(=O)=O)Cc1ccccc1`, the IC50 is above 10 µM in the assay on Plasmodium falciparum and 48.4 µM at Falcipain 2.

Turning to `CC(=O)N[C@@H](Cc1ccccc1)C(=O)N[C@H](/C=C1\CCCN(c2ccccc2)S1(=O)=O)Cc1ccccc1`, the IC50 in the assay on Plasmodium falciparum is above 10 µM; at Falcipain 2, 26.5 µM. Also, the inhibition result on Papain (Carica papaya) [2] was “inactive”.

Take `CC(C)C[C@H](NC(=O)N1CCOCC1)C(=O)N[C@H](/C=C1\CCCN(c2ccccc2)S1(=O)=O)Cc1ccccc1`: the figures for the IC50 in the assay with Plasmodium falciparum and at Falcipain 2 were above 10 µM and 31.4 µM, respectively.

As to `CC(C)C[C@H](NC(=O)N1CCOCC1)C(=O)N[C@H](/C=C1\CCCN(Cc2ccccc2)S1(=O)=O)Cc1ccccc1`, the IC50 stood at 7.8 µM with Plasmodium falciparum and 13.7 µM at Falcipain 2. The inhibition entry on Papain (Carica papaya) [1] is “inactive”.
